Data on three molecules can be found in publication PMC12006963, “Application of Deuterium in an M1 Positive Allosteric Modulator Back-Up Program: The Discovery of VU6045422” (ACS Chemical Neuroscience, 2025).

For orientation: IC50 means the concentration needed to halve the response being measured. Higher therefore signals weaker potency.

Molecules are shown by their SMILES. Like-named read-outs stand apart in the source and are kept apart here.

A short description of data set [1]: In vivo IV/PO pharmacokinetics, rat. The following applies: rat (SD), dose iv/po mg/kg: 1 1/3, 3 1/10, 5 1/10; for clearance / Vd / half-life: Sprague-Dawley, plasma, 1 mg/kg; for clearance: read-out: CLp; for Vd: read-out: Vss; for half-life: read-out: elimination t1/2 (converted).
Another data set concerns the target T1, M1 (Homo sapiens, UniProt P11229).
T1 construct: expressed in transfected cells
T1 sequence (P11229 1-460): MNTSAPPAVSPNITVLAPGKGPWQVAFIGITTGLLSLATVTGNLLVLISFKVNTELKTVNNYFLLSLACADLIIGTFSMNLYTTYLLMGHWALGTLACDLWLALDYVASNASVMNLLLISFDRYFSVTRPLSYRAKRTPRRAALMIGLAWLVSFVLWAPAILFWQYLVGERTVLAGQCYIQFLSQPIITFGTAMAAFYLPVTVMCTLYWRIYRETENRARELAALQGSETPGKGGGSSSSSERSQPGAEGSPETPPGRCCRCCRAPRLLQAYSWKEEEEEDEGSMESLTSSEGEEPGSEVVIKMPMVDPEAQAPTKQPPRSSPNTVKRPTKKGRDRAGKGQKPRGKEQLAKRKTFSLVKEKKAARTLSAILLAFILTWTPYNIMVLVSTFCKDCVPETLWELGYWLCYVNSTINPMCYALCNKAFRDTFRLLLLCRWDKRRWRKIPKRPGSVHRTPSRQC
As to the kind of experiment: Calcium mobilization, human M1 CHO cells (agonist and PAM modes). The format is cell-based. As to conditions: for M1 agonism: in words.

Data set [2] in a line: Predicted hepatic clearance, hepatic microsomes (human). The data set is classed as in vitro ADME. The method, then: After a 5 min preincubation, the reaction was initiated by the addition of NADPH (1 mM). At selected time intervals (0, 3, 7, 15, 25, and 45 min), aliquots were taken and subsequently placed into a 96-well plate containing cold acetonitrile with internal standard (50 ng/mL carbamazepine). Plates were then centrifuged at 3000 rcf (4 °C) for 10 min, and the supernatant was transferred to a separate 96-well plate and diluted 1:1 with water for LC/MS/MS analysis. The in vitro half-life ( 1/2, min, Eq. 1), intrinsic clearance (CLint, mL/min/kg, Eq. 2), and subsequent predicted hepatic clearance (CLhep, mL/min/kg, Eq. 3) was determined employing the […]
where k represents the slope from linear regression analysis of the natural log percent remaining of a test compound as a function of incubation time […]
(2) CLint = in vitroT1/2 x mg microsomes x gram liver x kg body wt ascale-up factors: of 20 (human) or 45 (rat) […]
where Qh (hepatic blood flow, mL/min/kg) is 21 (human) or 70 (rat).
LC/MS/MS Bioanalysis of Samples from Plasma Protein Binding and Intrinsic Clearance […]
Samples were analyzed on a Thermo Electron TSQ Quantum Ultra triple quad mass spectrometer (San Jose, CA) via electrospray ionization (ESI) with two Themo Electron Accella pumps (San Jose, CA), and a Leap Technologies CTC PAL autosampler (Carrboro, NC). Analytes were separated by gradient elution on a dual column system with two Thermo Hypersil Gold (2.1 x 30 mm, 1.9 µm) columns (San Jose, CA) thermostated at 40 °C. HPLC mobile phase A was 0.1% formic acid in water and mobile phase B was 0.1% formic acid in acetonitrile. The gradient started […]
for 0.2 min; returned to 10% B in 0.1 min. The total run time was 1.3 min and the HPLC flow rate was 0.8 mL/min. While pump 1 ran the gradient method, pump 2 equilibrated the alternate column isocratically at 10% B. Compound optimization, data collection, and processing was performed using Thermo Electron's QuickQuan software (v2.3) and Xcalibur (v2.0.7 SP1).
In vivo DMPK experimental:
Determination of brain to plasma ratio: […]

Another data set addresses CYP 2D6 (Homo sapiens, UniProt P10635). As to the kind of experiment: CYP inhibition 2D6. The format is in vitro ADME. From the text: Table 1 Pharmacology and In Vitro DMPK Profiles of M1 PAMs 1, 3, and 5 | column: 1; 3; 5
Data set [3] can be described thus: Plasma protein binding, equilibrium dialysis (human). As to conditions: pH 7.4, read-out: fu,plasma. The format is in vitro ADME. As to the method: page 5: Drug Metabolism Methods: In vitro Plasma protein binding and Brain homogenate binding: Determination of fraction unbound (f u) in plasma was conducted in vitro via equilibrium dialysis using HTDialysis (HTD) membrane plates. The top half of the plate was filled with 100 uL of Dubelco’s Phosphate Buffered Saline, pH 7.4 (DPBS). Compounds were diluted into plasma from each species (5 µM final concentration), which was aliquoted in triplicate to the ‘bottom half’ of the prepared HTD plate wells. The HTD plate was sealed and incubated for 6 hours at 37 °C. Following incubation, each well (both top and bottom halves) were transferred (20 µL) to the corresponding wells of a 96- shallow-well (V-bottom) plate. The daughter plates were then matrix-matched (DPBS side wells received equal volume of plasma, and plasma side wells received equal volume of DPBS), and extraction solution (120 µL; acetonitrile containing 50 nM carbamazepine as IS) was added to all wells of both daughter plates to precipitate protein and extract test article. The plates were then sealed and centrifuged (3500 rcf) for 10 minutes at ambient temperature. Supernatant (60 µL) from each well of the daughter plates was then transferred to the corresponding wells of new daughter plates (96-shallow-well, V bottom) containing water (Milli-Q, 60 µL/well), and the plates were sealed in preparation for LC-MS/MS analysis (see LC-MS/MS analysis method below). The unbound fraction (f u) was calculated following the equation below, and mean values for each species were calculated from 3 replicates. […] Fraction unbound for both plasma and brain samples was determined using Equation 4. f = Concbuffer u Concplasma Equation 4 Determination of fraction unbound in plasma. […]

Setting [4] is: PAM mode, read-out: hM1 PAM EC50.
Setting [5] is: agonist mode, read-out: hM1 Agonist EC50.

Sequence of CYP 2D6 (P10635 whole entry): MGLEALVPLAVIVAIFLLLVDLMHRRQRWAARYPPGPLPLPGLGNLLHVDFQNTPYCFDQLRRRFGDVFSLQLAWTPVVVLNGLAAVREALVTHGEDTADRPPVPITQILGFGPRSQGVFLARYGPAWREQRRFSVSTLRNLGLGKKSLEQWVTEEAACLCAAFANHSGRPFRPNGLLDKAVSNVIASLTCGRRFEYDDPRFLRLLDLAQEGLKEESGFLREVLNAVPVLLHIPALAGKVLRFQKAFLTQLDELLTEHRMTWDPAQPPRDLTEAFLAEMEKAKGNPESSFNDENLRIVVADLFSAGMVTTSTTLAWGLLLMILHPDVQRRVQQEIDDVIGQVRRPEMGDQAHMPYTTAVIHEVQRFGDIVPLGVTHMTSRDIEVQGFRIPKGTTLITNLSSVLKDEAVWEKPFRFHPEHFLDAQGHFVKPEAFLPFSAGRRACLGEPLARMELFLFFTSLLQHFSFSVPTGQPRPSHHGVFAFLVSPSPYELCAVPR

On to `Cn1cc2c(-c3cc(F)c(CN4Cc5ncccc5C4=O)c(F)c3)cccc2n1` [compound 1], for which, in data set [1], the clearance was 3 mL/min/kg, the Vd amounted to 0.67 L/kg, the half-life is 3 h and the “F (%) po” value amounted to 93%. The “hM1 PAM AChmax (%)” value on M1 was 80%. Moreover, the EC50 on M1 (setting [4]) worked out at 0.492 µM. In addition, the EC50 at M1 (setting [5]) was more than 30 µM. Moreover, the “hM1 PAM AChmax (%) (pEC50 line)” value at M1 (mean ± spread) was 71±9.9%. Besides, the “Predicted CLhep” value in data set [2] is 1.3 mL/min/kg. This molecule also showed an IC50 against CYP 2D6 of more than 30 µM. In addition, in data set [3], the fraction unbound at 6 h, 5 µM is 0.034.

`[2H]C1([2H])c2ncccc2C(=O)N1Cc1c(F)cc(-c2cccc3nn(C)cc23)cc1F` [compound 3]: in data set [1], the clearance was found to be 5.5 mL/min/kg, the Vd was 1.4 L/kg, the half-life was 3 h and the “F (%) po” value worked out at 100%. At M1, the “hM1 PAM AChmax (%)” value is given as 81% and the M1 agonism entry was “minimal M1 agonism”. Moreover, the EC50 at M1 (setting [4]) worked out at 0.624 µM. Further, the EC50 on M1 (setting [5]) is more than 30 µM. The “hM1 PAM AChmax (%) (pEC50 line)” value on M1 (mean ± spread) stood at 78±2.2%. The “Predicted CLhep” value in data set [2] is reported as 10.6 mL/min/kg. The molecule further showed an IC50 at CYP 2D6 of more than 30 µM. The fraction unbound at 6 h, 5 µM in data set [3] was determined as 0.051.

On to `[2H]C1([2H])c2ncccc2C(=O)N1Cc1c(F)cc(-c2cccc3nn(C([2H])([2H])[2H])cc23)cc1F` [compound 5], for which, in data set [1], the clearance was 4.8 mL/min/kg, the Vd turned out to be 1.1 L/kg, the half-life was 3.6 h and the “F (%) po” value stood at 100%. In addition, at M1, the “hM1 PAM AChmax (%)” value came out at 80% and the M1 agonism entry is on record as “minimal M1 agonism”. In addition, the EC50 on M1 (setting [4]) is 0.192 µM. In addition, the EC50 at M1 (setting [5]) was more than 30 µM. Also, the “hM1 PAM AChmax (%) (pEC50 line)” value at M1 (mean ± spread) was found to be 82±1.8%. Besides, the EC50 on M1 (mean ± spread, n in cell, read-out: hM1 PAM pEC50 (converted)) was 0.182 µM. Further, in data set [2], the “Predicted CLhep” value was 8.0 mL/min/kg. The molecule further showed a concentration for half-maximal inhibition (IC50) against CYP 2D6 of more than 30 µM. Further, the fraction unbound at 6 h, 5 µM in data set [3] is 0.036.
